One compound from EPA's ToxValDB 9.5 (doi:10.2903/j.efsa.2010.1721) can be followed below.

The test system of one series is Colinus virginianus. To be noted: for LD50: acute, oral, mortality.
The next series has as its system Daphnia magna. To be noted: chronic/long-term; duration: 21 days; reproduction.
In a further series the test system is Tagia sp. Conditions: acute; duration: 14 days; mortality.
For another series, the system named is Canidae. To be noted: chronic; duration: 1 years; oral; Dog Other; organ weight.
A further series deals with Anas platyrhynchos. Conditions: oral, mortality.
The subject of a further series is Apis mellifera. To be noted: acute; duration: 48 hours; oral; unspecified; mortality.
The test system of a further series is Oryctolagus sp. To be noted: reproduction developmental; body weight.
For a further series, the system named is Mus musculus. Conditions: acute; oral; mortality.
Another series deals with Typhlodromus pyri. Briefly: LR50; higher = less toxic. To be noted: not reported; mortality.
A further series deals with Aphidius rhopalosiphi. Briefly: LR50; higher = less toxic. To be noted: not reported; mortality.

Take `CCOc1ccc(NC(=O)OC(C)C)cc1OCC` [Diethofencarb]: the LC50 in the series on Oncorhynchus mykiss (acute, duration: 96 hours, mortality) was over 10 µg/mL; with Tagia sp., over 1000 mg/kg. Besides, the NOEC was determined as 0.072 mg/L in the series on Oncorhynchus mykiss (chronic/long-term, duration: 88 days, growth) and 0.032 mg/L in the series with Daphnia magna. Further, the LD50 is over 1810 mg/kg-day with Colinus virginianus (diet); over 2250 mg/kg-day in the series on Colinus virginianus; over 5000 mg/kg-day with Rattus norvegicus (acute, oral, mortality); over 2250 mg/kg-day with Anas platyrhynchos (acute, unspecified); over 1630 mg/kg-day in the series with Anas platyrhynchos (short-term, feed); over 100 µg/piece with Apis mellifera. This compound also returned an LD50 in the series with Mus musculus of over 5000 mg/kg-day. For the same compound, the NOEL was found to be 78.7 mg/kg-day in the series with Colinus virginianus (reproduction developmental) and 300 mg/kg-day in the series on Oryctolagus sp.. The no observed adverse effect level (NOAEL) was 42.7 mg/kg-day in the series with Rattus norvegicus (chronic, duration: 2 years, organ weight) and 50 mg/kg-day in the series with Canidae. Also, the LR50 in the series on Typhlodromus pyri is 7.2 g/ha; in the series on Aphidius rhopalosiphi, over 1500 g/ha.

A word on the NOAEL: it is the highest dose or exposure tested at which no adverse effect was seen.
